Data set [1] concerns pancreatic cancer MIA PaCa-2 cells. The data set is described as follows: cells. Conditions: for EC50 / CC50: Homo sapiens; for EC50: MIA PaCa-2, read-out: EC50, μM MIA PaCa-2; for CC50: MIA PaCa-2, read-out: LC50 MIA PaCa-2. Here is the method: Fig 1 A, Structure of NSC130362. B, Dose response curve of NSC130362 in MIA PaCa-2 cells. Cells were pre-incubated with NSC130362 for 2 h followed by addition of ATO (5 μM) and incubation for an additional 24 h. At the end of the treatment, the ratio of dead cells was determined by a CellTiterGlo reagent.

Data set [2] has as its system human primary hepatocytes. Conditions: for EC50: read-out: EC50, μM Hepatocytes ATO, in the presence of ATO (5 μM), SD does not exceed 10%.
Excerpt: We selected hepatocytes as normal cells because hepatocytes are mediate toxicity to multiple drugs and are used as a standard to assess toxicity of drugs in vitro [28]. […] For comparison with the standard of care, doxorubicin was also included in this analysis.
For data set [3], the system named is Recombinant NADH/NADPH dehydrogenase. Briefly: NADH/NADPH dehydrogenase-mediated ROS generation assay. The data set is classed as biochemical. To be noted: 30 μM, 4 h at 37°C; for H2O2 generation, NADH/NADPH dehydrogenase -: absence of NADH/NADPH dehydrogenase; for H2O2 generation, NADH/NADPH dehydrogenase +: presence of NADH/NADPH dehydrogenase. As for the experimental part:
Recombinant NADH/NADPH dehydrogenase (0.5 units/well) in a 96-well plate was incubated in 100 μl of the assay buffer (50 mM potassium phosphate buffer, pH 7.5 supplemented with 1 mM EDTA) containing NADPH (3 μM) and superoxide dismutase (SOD) (100 units/well) with and without compound (30 μM) for 4 h at 37°C. At the end of incubation, the level of hydrogen peroxide was measured using a Hydrogen Peroxide Assay kit (Cayman). Control samples were without NADH/NADPH dehydrogenase. The rate of NADH/NADPH dehydrogenase- and compound-mediated ROS production was determined by subtracting values that were obtained in the absence of NADPH dehydrogenase. One unit of NADH/NADPH dehydrogenase was defined as the amount of enzyme required to reduce 1.0 μmole cytochrome C per min/mg in the presence of menadione substrate at 37°C. One unit of SOD was defined as the amount of enzyme required to inhibit reduction of cytochrome C by 50% in a coupled system with xanthine oxidase at pH 7.8 at 25°C in a 3.0 mL reaction volume. Xanthine oxidase concentration should produce an initial ΔA550 of 0.025 ± 0.005 per min.
As the next step, we examined the capability of the selected compounds to generate ROS in the presence or absence of NADH/NADPH dehydrogenase (Table 1). ROS can be generated by NADH/NADPH-dehydrogenase via the one electron reduction of a quinone ring of 1,4-NQs. Unstable half-reduced quinones (semiquinones) transfer electrons to molecular oxygen, thus generating superoxide anion radicals (O2^●-), which are converted by SOD to hydrogen peroxide. We believe that our assay measuring compound’s ability to generate H2O2 in the presence or absence of NADH/NADPH dehydrogenase more closely resembles conditions inside the cell than the assay designed to measure compound’s redox potential values. […] To determine the ability of compounds to induce ROS, compounds were incubated for 4 h at 37°C with and without NADH/NADPH-dehydrogenase in the presence of NADPH as an electron donor and SOD to convert generated superoxide radicals into hydrogen peroxide. At the end of incubation, 10-acetyl-3,7-dihydroxyphenoxazine (ADHP) and horseradish peroxidase (HRP) were added to the reaction and the level of HRP-mediated formation of the fluorogenic product, resorufin, was measured on a plate reader. ROS production was detected in reactions with either the toxic or non-toxic compounds.

Data set [4] concerns hepatocytes. Briefly: Hydrogen peroxide cell-based assay (ROS induction), hepatocytes. Set-up: species or system Human. To be noted: 30 μM; hydrogen peroxide level relative to DMSO-treated cells (100%). As for the experimental part: Cells were incubated for 2 h with either compounds (30 μM) or DMSO in a 96-well plate. After the treatment, 80 μl of cell culture medium was collected and the level of hydrogen peroxide was determined using a Hydrogen Peroxide Cell-Based Assay kit (Cayman).
Cells were incubated with the compounds for 4 h and the level of ROS induction was measured by a hydrogen peroxide cell-based assay kit. Compounds were assayed at a fixed concentration of 30 μM and the measured level of hydrogen peroxide was expressed as percentage in relation to DMSO-treated cells (100%). […] This distinction was more evident for compounds with the highest selective cytotoxicity index. […] We conclude that the selective induction of ROS in cancer cells is required but not sufficient factor for the selective anti-tumor activity.

Data set [5] addresses T1, human GAPDH enzyme (Homo sapiens, UniProt P04406).
T1 construct: endogenous in cells; host or cells: MIA PaCa-2 cells
The data set is described as follows: GAPDH activity assay in MIA PaCa-2 cells. The data set is classed as cell-based. Conditions: 2 h, read-out: GAPDH, enzyme residual activity as compared to DMSO-treated sample. Here is the method: Cells were incubated for 2 h with either compounds (30 μM) or DMSO in a 6-well plate. Next, cells were collected in 200 μl of PBS and disrupted by sonication. Insoluble material was removed by centrifugation. The level of GAPDH activity was determined by GAPDH activity assay kit (BioVision).
As a final step, we evaluated the inhibitory activity of the selected compounds against human GAPDH enzyme in a cell-based assay using MIA PaCa-2 cells (Table 1). Cells were pre-incubated with compounds for 2 h at 37°C followed by cell lysis using sonication and GAPDH activity assay. The ability of compounds to inhibit GAPDH was expressed as percentage of GAPDH residual activity with respect to DMSO-treated cells. […] Similar to the GSR activity assay, only two of the most toxic compounds 31 and 32, were able to inhibit GAPDH by 95 and 97%, respectively.

Data set [6] is described as follows: Distribution coefficient LogD. To be noted: octanol/water, pH 7.4; read-out: LogD, pH = 7.4. The data set is classed as physicochemical. From the text:
We conclude that the analysis of the octanol-water partitioning is not sufficient to establish a link between degree of lipophilicity and biological activities of the selected compounds.

For data set [7] the following is noted: in words; cited from earlier work.
The test system of data set [8] is PANC1 pancreatic carcinoma cells. The data set is described as follows: Combined treatment with pancreatic cancer drugs, PANC1 cells. The data set is classed as cell-based, Human. To be noted: NSC130362 10 μM 2 h, then drugs 10 μM 24 h. As for the experimental part: (§1) Fig 2 Combined treatment of NSC130362 with pancreatic cancer drugs against PANC1 and YAPC cells. Cells were pre-incubated with NSC130362 (10 μM) for 2 h followed by addition of drugs (10 μM) and incubation for an additional 24 h. […] The first bar is NSC130362 alone. *, P<0.05.

The conditions of data set [9]: in words; cited from earlier work. This is another data set of the same source.
Data set [10] has as its system YAPC pancreatic carcinoma cells. The data set is described as follows: Combined treatment with pancreatic cancer drugs, YAPC cells. The data set is classed as cell-based, Human. Conditions: NSC130362 10 μM 2 h, then drugs 10 μM 24 h. Here is the method: as §1
The subject of data set [11] is chemotherapy resistant prostate carcinoma cells. Briefly: Combined treatment with ATO, docetaxel, MDV3100, prostate cancer cells. The data set is classed as cell-based. Conditions: NSC130362 10 μM 2 h. Here is the method: Fig 3 Combined treatment of NSC130362 with ATO, docetaxel, and MDV3100 against prostate cancer cells. Cells were pre-incubated with NSC130362 (10 μM) for 2 h followed by addition of drugs (10 μM) and incubation for an additional 24 h. […] The first bar in the treatment of each cell line is NSC130362 alone. *, P<0.05.

Molecules are shown by their SMILES. Some results are limits rather than exact numbers.

A word on the EC50: it is the midpoint of the concentration-response curve. What is called logD is lipophilicity at a set pH, counting ionised and neutral species.

T1 sequence (P04406 whole entry): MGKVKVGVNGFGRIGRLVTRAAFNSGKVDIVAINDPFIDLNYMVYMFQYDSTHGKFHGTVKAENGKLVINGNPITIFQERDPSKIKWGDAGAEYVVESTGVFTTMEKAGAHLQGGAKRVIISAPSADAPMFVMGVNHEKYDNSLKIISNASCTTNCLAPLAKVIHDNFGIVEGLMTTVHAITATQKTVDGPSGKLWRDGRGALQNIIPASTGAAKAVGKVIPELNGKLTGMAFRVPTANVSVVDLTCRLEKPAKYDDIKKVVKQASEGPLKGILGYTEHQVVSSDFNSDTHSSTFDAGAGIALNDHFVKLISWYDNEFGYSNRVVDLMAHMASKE

Regarding `O=C1C=C(SCCO)C(=O)c2ccccc21` [compound 60], in data set [1], the EC50 came to 6.2 µM and the CC50 stood at 6.2 µM. Moreover, the EC50 in data set [2] amounted to 1.7 µM. In data set [3], the “H2O2 generation, NADH/NADPH dehydrogenase -” value stood at 6.9 µM and the “H2O2 generation, NADH/NADPH dehydrogenase +” value turned out to be 12.7 µM. For the same molecule, the “ROS increase, % Hepatocytes” value in [4] is on record as 386%. For the same molecule, the remaining activity at 30 µM in data set [5] stood at 88%. Further, the logD in data set [6] came to 2.99.
For `COCCNC1=C(Cl)C(=O)c2ccccc2C1=O` [compound 21], in data set [1], the EC50 was 13.8 µM and the CC50 turned out to be 13.8 µM. Besides, the “increase in toxicity to hepatocytes” value in data set [2] (versus compound 3) was “approximately 3 fold”. For the same molecule, in [3], the “H2O2 generation, NADH/NADPH dehydrogenase -” value worked out at 6.5 µM and the “H2O2 generation, NADH/NADPH dehydrogenase +” value turned out to be 6.4 µM. In addition, the “ROS increase, % Hepatocytes” value in data set [4] is reported as 154%. The remaining activity at 30 µM in data set [5] was determined as 100%. The logD in [6] was 0.
On to `O=C1C(Nc2ccccc2)=CC(=O)c2ncccc21` [compound 67, reference compound], for which, in data set [1], the EC50 amounted to 1 µM and the CC50 worked out at 1 µM. In addition, the “increase in anti-cancer activity” value in data set [1] (versus compound 64) was “approximately 10 fold”. Moreover, the EC50 in [2] is 19.4 µM. For the same molecule, in data set [2] (versus compound 64), the “decrease in toxicity to hepatocytes” value worked out at 3 fold. In [3], the “H2O2 generation, NADH/NADPH dehydrogenase -” value amounted to 5.5 µM and the “H2O2 generation, NADH/NADPH dehydrogenase +” value is 11.9 µM. The “ROS increase, % Hepatocytes” value in data set [4] is given as 179%. The remaining activity at 30 µM in data set [5] amounted to 76%. The logD in [6] is 3.45.
For `O=C1C(Cl)=C(NCCO)C(=O)c2ccccc21` [compound 17], in data set [1], the EC50 worked out at 9.8 µM and the CC50 was found to be 9.8 µM. The “dose-response in MIA PaCa-2 cells” value in [1] (in the presence of ATO (5 μM), 24 h) is listed as “induced a dose-response over a hundred-fold concentration range”. Besides, the “anti-tumor activity in vivo” value in [7] is on record as “demonstrated anti-tumor activity in vivo”. For the same molecule, the “effect on apoptosis induction by pancreatic cancer drugs, PANC1” value in data set [8] is recorded as “significantly increased the ability of all tested pancreatic cancer drugs”. Besides, the “half-life in the mouse bloodstream” value in [9] was “short half-life”. Also, in [3], the “H2O2 generation, NADH/NADPH dehydrogenase -” value was 2.6 µM and the “H2O2 generation, NADH/NADPH dehydrogenase +” value was 4.8 µM. The “ROS increase, % Hepatocytes” value in [4] is 132%. The “effect on apoptosis induction by pancreatic cancer drugs, YAPC” value in data set [10] is reported as “significantly increased the ability of all tested pancreatic cancer drugs”. Further, in data set [5], the remaining activity at 30 µM amounted to 89%. The “potentiation of docetaxel-induced cytotoxicity” value in [11] (then docetaxel 10 μM 24 h) is given as “potentiated docetaxel-induced cytotoxicity, but to a lesser extent”. Also, the “potentiation of ATO or MDV3100 effect on cell viability” value in data set [11] (then drugs 10 μM 24 h) is given as “efficiently potentiated the effect on cell viability of either ATO or MDV3100”. Also, in data set [6], the logD was 1.12.
With `CCNC1=CC(=O)c2ncccc2C1=O` [compound 66], in data set [1], the EC50 was 4.5 µM and the CC50 worked out at 4.5 µM. Besides, the improved anti-cancer activity entry in data set [1] (versus compound 49) is on record as “more than 30 fold”. For the same molecule, in data set [2], the EC50 is above 90 µM. For the same molecule, in [3], the “H2O2 generation, NADH/NADPH dehydrogenase -” value was 5.4 µM and the “H2O2 generation, NADH/NADPH dehydrogenase +” value amounted to 10.3 µM. The “ROS increase, % Hepatocytes” value in [4] was 173%. Moreover, the remaining activity at 30 µM in data set [5] was 93%. Also, the logD in data set [6] is 2.87.

The record behind these values is publication PMC6433232, “Targeting mitochondria in cancer therapy could provide a basis for the selective anti-cancer activity” (PLoS ONE, 2019).
